# Laboratory results reported in patent US12240862B2, “Inhibitors of peptidylarginine deiminases” (Gilead Sciences, Inc., priority 2020, dated 2025).
# Experiments:
# [1] = test system: models of chronic and acute inflammatory diseases; settings: MRL/lpr lupus, hemorrhagic shock in rats, CLP sepsis, DSS-colitis, ApoE-/- arteriosclerosis, diabetic wound healing models; cited from earlier work
# [2] = test system: murine CIA model; settings: prophylactic treatment; cited from earlier work
# [3] = target: T1, human PAD4 (Homo sapiens, UniProt Q9UM07); test: In vitro PAD4 BAEE biochemical assay; settings: human PAD4, BAEE substrate; 5 nM PAD4, 2 mM calcium chloride, 3 mM BAEE; geometric mean of multiple experiments
# T1 construct: human PAD4 (NM_012387), A2P663, was PCR amplified; His-SUMO (N, cleaved yes); made in house; host or cells: E. coli BL21(DE3)
# Outline: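 Ammonia generated from BAEE serves as the readout, measured by o-phthalaldehyde after EDTA termination. Final conditions: 5 nM human PAD4 (SUMO tag cleaved), 2 mM CaCl2, 3 mM BAEE, pH 7.6 MOPS buffer, 25 °C for 2 h following a 30-min compound preincubation.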
# T1 sequence (Q9UM07 2-663): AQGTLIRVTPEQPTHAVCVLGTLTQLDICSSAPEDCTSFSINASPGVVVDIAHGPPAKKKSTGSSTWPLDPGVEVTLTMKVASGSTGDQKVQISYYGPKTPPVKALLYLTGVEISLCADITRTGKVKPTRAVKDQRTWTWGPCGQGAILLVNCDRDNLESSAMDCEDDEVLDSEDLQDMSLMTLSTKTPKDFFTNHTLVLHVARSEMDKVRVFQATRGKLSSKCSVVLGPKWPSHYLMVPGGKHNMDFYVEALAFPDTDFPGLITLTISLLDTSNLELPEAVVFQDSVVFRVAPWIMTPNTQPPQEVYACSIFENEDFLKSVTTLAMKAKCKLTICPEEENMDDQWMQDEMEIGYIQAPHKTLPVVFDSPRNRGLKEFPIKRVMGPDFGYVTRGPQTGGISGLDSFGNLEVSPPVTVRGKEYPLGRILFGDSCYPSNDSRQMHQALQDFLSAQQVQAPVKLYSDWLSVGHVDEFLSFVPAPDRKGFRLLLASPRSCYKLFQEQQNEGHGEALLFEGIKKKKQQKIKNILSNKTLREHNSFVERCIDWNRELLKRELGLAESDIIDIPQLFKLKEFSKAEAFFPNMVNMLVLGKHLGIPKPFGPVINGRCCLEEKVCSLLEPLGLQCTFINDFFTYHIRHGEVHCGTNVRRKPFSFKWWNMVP
IC50 [3],Compound,"clinical, inflammatory, histopathological and mechanical end points, NETosis, outcome [1]",clinical and histological scores [2]
,YW3-56,"reduction of clinical, inflammatory, histopathological and mechanical end points",
,NC(=O)[C@H](CCCN=C(N)CCl)NC(=O)c1ccccc1 [chloroamidine],"reduction of clinical, inflammatory, histopathological and mechanical end points",improvement of clinical and histological scores
,GSK199,,improvement of clinical and histological scores
56 nM,"COc1cc(C(=O)N2[C@H]3CC[C@@H]2[C@H](N)C3)cc2nc(-c3cc4ccc([C@@H](C)NC(=O)C5(C)COC5)nc4n3CC3CC3)c(C)n12 [Example 166, ~{N}-[(1~{R})-1-[2-[7-[(1~{R},2~{R},4~{S})-2-amino-7-azabicyclo[2.2.1]heptane-7-carbonyl]-5-methoxy-3-methylimidazo [1,2-a]pyridin-2-yl]-1-(cyclopropylmethyl)pyrrolo [2,3-b]pyridin-6-yl]ethyl]-3-methyloxetane-3-carboxamide]",,
1000 nM,"COc1cc(C(=O)N2[C@H]3CC[C@@H]2[C@H](N)C3)cc2nc(-c3cc4ccc(C(C)(O)c5ccccc5)nc4n3CC3CC3)c(C)n12 (stereo partly drawn) [Example 573, [(1~{R},2~{R},4~{S})-2-amino-7-azabicyclo [2.2.1]heptan-7-yl]-[2-[1-(cyclopropylmethyl)-6-(1-hydroxy-1-phenylethyl)pyrrolo[2,3-b]pyridin-2-yl]-5-methoxy-3-methylimidazo[1,2-a]pyridin-7-yl]methanone]",,
